Read-outs that look alike come from different tables or passages of the source.
Key:
[1] = system: A549 (human lung carcinoma cell line); assay: Glo assay of A549 cells (Table 3; ProteasomeGlo plating scheme); assay type: cell-based; conditions: Homo sapiens
Method in brief: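 Compound treatment lasts 105 minutes at 37° C. under 5% CO2. Suc-LLVY-Glo substrate premixed with detection reagent (60 min at room temperature) is then added directly to the cells, and luminescence after 10-15 min in the dark gives the IC50 in nM.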

[2] = system: MM1 S (B lymphoblast cell line); assay: 48 hr CTG viability assay, MM1S; assay type: cell-based; conditions: Homo sapiens
Experimental: (§1) A viability assay was conducted for 48 hours to evaluate the inhibition of cancer cell growth by proteasome inhibitors. Briefly, the candidate cell line was plated with a 96-well plate following density of cells, respectively. 6×10^3 Cells/well for A2780 (human ovarian cancer cell line) and MDA-MB-468 (breast carcinoma), 8×10^3 Cells/well for Hs746T (human gastric carcinoma cell line), 1.1×10^4 Cells/well for MM1 S and RPMI 8226 (multiple myeloma). After 24 hours, the cells were treated with various concentrations of the compound (ranging from 0.0015 uM to 10 uM). […] After 48 hours of incubation at 37° C., 5% CO2 incubator, cells were analyzed for viability using the CellTiter-Glo Luminescent Cell Viability assay (Promega, Cat #G7570). All viability assays were performed in duplicate and Luminescence was read using an Envision (Perkin Elmer, USA). Data were analyzed using XLfit software. […] (human gastric carcinoma cell line), MM1 S (B lymphoblast cell line), and RPMI 8226 (B lymphocyte cell line, multiple myeloma). Inhibition is indicated as IC50 [nM] (“-”=not measured).

[3] = system: RPMI 8226 (B lymphocyte cell line, multiple myeloma); assay: 48 hr CTG viability assay, RPMI 8226; assay type: cell-based; conditions: Homo sapiens
Experimental: as §1

[4] = molecular target: T1, β5 subunit of the human immunoproteasome (IPS) (Homo sapiens, UniProt P28062); assay: β5 inhibition assay, human immunoproteasome (Suc-LLVY-AMC); assay type: biochemical; conditions: IC50 class, Suc-LLVY-AMC substrate
T1 construct: purchased Boston Biochem E-370
Method in brief: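 Human immunoproteasome (1 nM final) was preincubated 10 min at RT with compound in 100 mM HEPES pH 7.5, 50 mM NaCl, 0.02% SDS, 1 mM DTT. Suc-LLVY-AMC (22.6 μM final) was then added for 4 h at RT in the dark. After stopping with 1 μM bortezomib, AMC fluorescence was read (ex 355/em 460 nm).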

[5] = molecular target: T2, β5 subunit of the human constitutive proteasome (CPS) (Homo sapiens, UniProt P28074); assay: β5 inhibition assay, human constitutive proteasome (Suc-LLVY-AMC); assay type: biochemical; conditions: IC50 class, Suc-LLVY-AMC substrate
T2 construct: purchased Boston Biochem E-360
Experimental: The enzymatic activity of the β5 subunit of the human constitutive proteasome (CPS) is analyzed. In another assay, which differs from the assay of the human constitutive proteasome only in using the human immunoproteasome (IPS) the enzymatic activity of the β5 subunit of the human immunoproteasome (IPS) is analyzed. […] Inhibition is indicated as IC50 [nM] (“-”=not measured).

[6] = system: Hs 746T (human gastric carcinoma cell line); assay: 48 hr CTG viability assay, Hs 746T; assay type: cell-based; conditions: Hs746T
Experimental: as §1

[7] = A549 cells, read-out: PGLo A549
[8] = RPMI-8226, 48 hr CTG, read-out: RPMI-8226 IC50
[9] = 48 hr CTG, read-out: Hs 746T IC50

IC50 [1, 7] [nM] | IC50 ([2]; 48 hr CTG, read-out: MM1S IC50) [nM] | IC50 [3, 8] [nM] | IC50 [4] [nM] | IC50 [5] [nM] | IC50 [6, 9] [nM] | SMILES | IC50 ([1]; A549, read-out: PGLo A549 [nM]) [nM] | IC50 ([2]; 48 h, read-out: MM1S IC50 [nM]) [nM] | IC50 ([3]; RPMI-8226, 48 h, read-out: RPMI-8226 IC50 [nM]) [nM] | IC50 ([6]; 48 h, read-out: Hs 746T IC50 [nM]) [nM]
< 100 | < 100 | < 100 | < 100 | < 100 | < 100 | CC(=O)c1ccc(CC(=O)N[C@H]2CCC(=O)NCCCCOc3ccc(C)c(c3)CNC(=O)[C@H](CCc3ccccc3)NC2=O)cc1 [Compound 707, 2-(4-acetylphenyl)-N-((11S,14S)-1^4-methyl-8,12,15-trioxo-1^4-phenethyl-2-oxa-7,13,16-triaza-1(1,3)-benzenacycloheptadecaphane-11-yl)acetamide] | – | – | – | –
< 100 | < 100 | < 100 | < 100 | < 100 | < 100 | Cc1ccc2cc1CNC(=O)[C@H](CCc1ccccc1)NC(=O)[C@@H](NC(=O)CCNC(=O)c1ccc(C3CCCCC3)cc1)CC(=O)N1CCCC(CCO2)C1 (stereo partly drawn) [Compound 656, 4-cyclohexyl-N-(3-(((9S,12S)-5^4-methyl-8,11,14-trioxo-9-phenethyl-4-oxa-7,10-diaza-1(3,1)-piperidina-5(1,3)-benzenacyclotetradecaphane-12-yl)amino)-3-oxopropyl)benzamide] | – | – | – | –
< 100 | < 100 | < 100 | < 100 | < 100 | < 100 | COc1ccccc1CCCOCCC(=O)N[C@H]1CC(=O)N2CCCC(CCOc3ccc(C)c(c3)CNC(=O)[C@H](CCc3ccccc3)NC1=O)C2 (stereo partly drawn) [Compound 637, 3-(3-(2-methoxyphenyl)propoxy)-N-((9S,12S)-5^4-methyl-8,11,14-trioxo-9-phenethyl-4-oxa-7,10-diaza-1(3,1)-piperidina-5(1,3)-benzenacyclotetradecaphane-12-yl)propanamide] | – | – | – | –
1000 to 5000 | 100 to 500 | 500 to 1000 | < 100 | 100 to 500 | 1000 to 5000 | Cc1ccc2cc1CNC(=O)[C@H](CCc1ccccc1)NC(=O)[C@@H](N1CCCC1)CC(=O)N1CCCC(CCO2)C1 (stereo partly drawn) [Compound 731, (9S,12S)-5^4-methyl-9-phenethyl-12-(pyrrolidin-1-yl)-4-oxa-7,10-diaza-1(3,1)-piperidina-5(1,3)-benzenacyclotetradecaphane-8,11,14-trione] | – | – | – | –
100 to 500 | 100 to 500 | 100 to 500 | < 100 | < 100 | 1000 to 5000 | Cc1cn([C@H]2CC(=O)N3CCCC(CCOc4ccc(C)c(c4)CNC(=O)[C@H](CCc4ccccc4)NC2=O)C3)nn1 (stereo partly drawn) [Compound 740, (9S,12S)-5^4-methyl-12-(4-methyl-1H-1,2,3-triazol-1-yl)-9-phenethyl-4-oxa-7,10-diaza-1(3,1)-piperidina-5(1,3)-benzenacyclotetradecaphane-8,11,14-trione] | – | – | – | –
500 to 1000 | 100 to 500 | 100 to 500 | 100 to 500 | 100 to 500 | 1000 to 5000 | Cc1ccc2cc1CNC(=O)[C@H](CCc1ccccc1)NC(=O)[C@@H](N1CCCC1=O)CC(=O)N1CCCC(CCO2)C1 (stereo partly drawn) [Compound 728, (9S,12S)-5^4-methyl-12-(2-oxopyrrolidin-1-yl)-9-phenethyl-4-oxa-7,10-diaza-1(3,1)-piperidina-5(1,3)-benzenacyclotetradecaphane-8,11,14-trione] | – | – | – | –
< 100 | < 100 | < 100 | < 100 | < 100 | < 100 | Cc1ccc2cc1CNC(=O)[C@H](CCc1ccccc1)NC(=O)[C@@H](NC(=O)C(C)(C)C(F)(F)F)CC(=O)N1CCCC(CCO2)C1 (stereo partly drawn) [Compound 646, 3,3,3-trifluoro-2,2-dimethyl-N-((9S,12S)-5^4-methyl-8,11,14-trioxo-9-phenethyl-4-oxa-7,10-diaza-1(3,1)-piperidina-5(1,3)-benzenacyclotetradecaphane-12-yl)propanamide] | – | – | – | –
< 100 | < 100 | < 100 | < 100 | < 100 | < 100 | Cc1ccc2cc1CNC(=O)[C@H](CCc1ccccc1)NC(=O)[C@@H](NC(=O)CCN1CCC3(CCOC3)CC1)CC(=O)N1CCCC(CCO2)C1 (stereo partly drawn) [Compound 621, N-((9S,12S)-5^4-methyl-8,11,14-trioxo-9-phenethyl-4-oxa-7,10-diaza-1(3,1)-piperidina-5(1,3)-benzenacyclotetradecaphane-12-yl)-3-(2-oxa-8-azaspiro[4.5]decan-8-yl)propanamide] | – | – | – | –
< 100 | < 100 | < 100 | < 100 | < 100 | < 100 | Cc1ccc2cc1CNC(=O)[C@H](CCc1ccccc1)NC(=O)[C@@H](NC(=O)N1CCc3cnccc31)CC(=O)N1CCCC(CCO2)C1 (stereo partly drawn) [Compound 703, N-((9S,12S)-5^4-methyl-8,11,14-trioxo-9-phenethyl-4-oxa-7,10-diaza-1(3,1)-piperidina-5(1,3)-benzenacyclotetradecaphane-12-yl)-2,3-dihydro-1H-pyrrolo[3,2-c]pyridine-1-carboxamide] | – | – | – | –
< 100 | < 100 | < 100 | < 100 | < 100 | < 100 | Cc1ccc2cc1CNC(=O)[C@H](CCc1ccccc1)NC(=O)[C@@H](NC(=O)CCOC1CC1)CC(=O)N1CCCC(CCO2)C1 (stereo partly drawn) [Compound 597, 3-cyclopropoxy-N-((9S,12S)-5^4-methyl-8,11,14-trioxo-9-phenethyl-4-oxa-7,10-diaza-1(3,1)-piperidina-5(1,3)-benzenacyclotetradecaphane-12-yl)propanamide] | – | – | – | –
< 100 | < 100 | < 100 | < 100 | < 100 | < 100 | Cc1ccc2cc1CNC(=O)[C@H](CCc1ccccc1)NC(=O)[C@@H](NC(=O)CCNCCC1CCC1)CC(=O)N1CCCC(CCO2)C1 (stereo partly drawn) [Compound 693, 3-((2-cyclobutylethyl)amino)-N-((9S,12S)-5^4-methyl-8,11,14-trioxo-9-phenethyl-4-oxa-7,10-diaza-1(3,1)-piperidina-5(1,3)-benzenacyclotetradecaphane-12-yl)propanamide] | – | – | – | –
< 100 | < 100 | < 100 | < 100 | < 100 | < 100 | Cc1ccc2cc1CNC(=O)[C@H](CCc1ccccc1)NC(=O)[C@@H](NC(=O)N1Cc3ccc(N)cc3C1)CC(=O)N1CCCC(CCO2)C1 (stereo partly drawn) [Compound 687, 5-amino-N-((9S,12S)-5^4-methyl-8,11,14-trioxo-9-phenethyl-4-oxa-7,10-diaza-1(3,1)-piperidina-5(1,3)-benzenacyclotetradecaphane-12-yl)isoindoline-2-carboxamide] | – | – | – | –
< 100 | < 100 | < 100 | < 100 | < 100 | < 100 | COc1ccc(CCOCCC(=O)N[C@H]2CC(=O)N3CCCC(CCOc4ccc(C)c(c4)CNC(=O)[C@H](CCc4ccccc4)NC2=O)C3)cc1 (stereo partly drawn) [Compound 610, 3-(4-methoxyphenethoxy)-N-((9S,12S)-5^4-methyl-8,11,14-trioxo-9-phenethyl-4-oxa-7,10-diaza-1(3,1)-piperidina-5(1,3)-benzenacyclotetradecaphane-12-yl)propanamide] | – | – | – | –

SMILES | IC50 [1, 7] [nM] | IC50 ([2]; 48 hr CTG, read-out: MM1S IC50) [nM] | IC50 [3, 8] [nM] | IC50 [4] [nM] | IC50 [5] [nM] | IC50 [6, 9] [nM] | IC50 ([1]; A549, read-out: PGLo A549 [nM]) [nM] | IC50 ([2]; 48 h, read-out: MM1S IC50 [nM]) [nM] | IC50 ([3]; RPMI-8226, 48 h, read-out: RPMI-8226 IC50 [nM]) [nM] | IC50 ([6]; 48 h, read-out: Hs 746T IC50 [nM]) [nM]
Cc1ccc2cc1CNC(=O)[C@H](CCc1ccccc1)NC(=O)[C@@H](NC(=O)CCN1CCC1)CC(=O)N1CCCC(CCO2)C1 (stereo partly drawn) [Compound 702, 3-(azetidin-1-yl)-N-((9S,12S)-5^4-methyl-8,11,14-trioxo-9-phenethyl-4-oxa-7,10-diaza-1(3,1)-piperidina-5(1,3)-benzenacyclotetradecaphane-12-yl)propanamide] | – | – | – | < 100 | < 100 | – | < 100 | < 100 | < 100 | < 100
